Read-outs that look alike come from different tables or passages of the source.
What was measured:
RARs = assay: RAR activation; assay type: cell-based
RXRs = assay: RXR activation; assay type: cell-based
[1] = oral, cited from earlier work
[2] = published data (N = 525); cited from earlier work
[3] = cited from earlier work
[4] = published data (N = 525); cited from earlier work; remark: listed apart in the source
[5] = Food effect (high-fat meal vs 8-10 hour fast) on pharmacokinetics of tazarotenic acid after oral tazarotene in normal healthy subjects; assay type: in vivo, human; details: 6.3 mg oral tazarotene, fed vs fasted
Text: For the purposes of this application, the bioavailability of a drug may be based on the human pharmokinetic parameters of maximum blood concentration (Cmax) and Area under the blood concentration-time curve (AUC).

[6] = Patient with severe psoriasis taking Ortho-Novum treated with tazarotene; assay type: in vivo, human; details: female, human, in vivo, tazarotene 6 mg per day, mean ±SD
Text: The patient presents symptoms of severe psoriasis. The symptoms include lesions approximately 4 to 10 centimeters across appearing as raised patches of wine red skin many of which are covered in silvery white scales. The lesions are mostly dry and rough, and quite often noticeably warm to the touch. The lesions are present on the elbows, knees, scalp, and groin area. The patient experiences intense burning and itching associated with the lesions.
The patient is currently taking Ortho-Novum® for contraception.
Tazarotene at a dose of 6 mg per day is prescribed.

RAR-α = target: T1, RAR-α (Homo sapiens, UniProt P10276); assay: RAR-α activity; assay type: cell-based
T1 sequence (P10276 1-462): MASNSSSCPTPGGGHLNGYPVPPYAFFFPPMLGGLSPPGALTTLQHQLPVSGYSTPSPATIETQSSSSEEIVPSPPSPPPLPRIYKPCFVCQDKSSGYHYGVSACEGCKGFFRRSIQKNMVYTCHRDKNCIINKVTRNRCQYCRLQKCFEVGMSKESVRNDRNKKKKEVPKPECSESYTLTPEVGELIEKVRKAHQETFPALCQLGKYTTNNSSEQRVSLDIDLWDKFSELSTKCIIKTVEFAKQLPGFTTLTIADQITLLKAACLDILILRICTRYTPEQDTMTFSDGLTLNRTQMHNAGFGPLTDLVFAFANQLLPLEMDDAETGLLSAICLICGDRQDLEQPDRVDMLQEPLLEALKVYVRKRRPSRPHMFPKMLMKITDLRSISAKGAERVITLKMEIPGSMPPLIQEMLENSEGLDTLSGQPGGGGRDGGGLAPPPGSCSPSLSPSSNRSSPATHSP

CC1(C)CC[S+]([O-])c2ccc(C#Cc3ccc(C(=O)O)cn3)cc21 (centres unmarked) [AGN 190844]
activation of the RARs (RARs): does not activate either the RARs or the RXRs
activation of the RXRs (RXRs): does not activate either the RARs or the RXRs

COc1cc(C)c(/C=C/C(C)=C/C=C/C(C)=C/C(=O)O)c(C)c1C [acitretin]
impact of food on bioavailability [1]: bioavailability is increased in the presence of food
Alopecia [2]: 319 (60.8) number (%) of patients
Arthralgia [2]: 102 (19.4) number (%) of patients
Atrophy of skin [2]: 64 (12.2) number (%) of patients
Back pain [2]: 41 (7.8) number (%) of patients
Cheilitis [2]: 429 (81.7) number (%) of patients
Dry Skin [2]: 174 (33.1) number (%) of patients
Dry mouth/Oral dryness [2]: 76 (14.5) number (%) of patients
Epistaxis [2]: 61 (11.6) number (%) of patients
Erythematous rash/Erythema [2]: 57 (10.9) number (%) of patients
Hyperesthesia [2]: 66 (12.6) number (%) of patients
Nail Disorder [2]: 170 (32.4) number (%) of patients
Paresthesia [2]: 56 (10.7) number (%) of patients
Paronychia/Nail disorder [2]: 66 (12.6) number (%) of patients
Pruritus [2]: 157 (29.9) number (%) of patients
Rhinitis [2]: 153 (29.1) number (%) of patients
Rigors/Chills [2]: 67 (12.8) number (%) of patients
Skin peeling/Desquamation [2]: 345 (65.7) number (%) of patients
Sticky skin/Skin disorder [2]: 129 (24.6) number (%) of patients
Xerophthalmia/Eye disorder [2]: 112 (21.3) number (%) of patients
effect on contraceptive effect of microdosed progestin “minipill” preparations ([3]; in vivo): interferes with the contraceptive effect

C=C(c1ccc(C(=O)O)cc1)c1cc2c(cc1C)C(C)(C)CCC2(C)C [bexarotene]
impact of food on bioavailability [1]: bioavailability is increased in the presence of food
effect on plasma concentration of tamoxifen ([3]; coadministration with tamoxifen): reduced plasma concentration of tamoxifen

CC1=C(/C=C/C(C)=C/C=C/C(C)=C\C(=O)O)C(C)(C)CCC1 [isotretinoin]
Cheilitis [4]: 472 (90.2) number (%) of patients
Conjunctivitis [4]: 201 (38.4) number (%) of patients
Desquamation central face/Desquamation [4]: 187 (35.8) number (%) of patients
Dry Skin [4]: 172 (32.9) number (%) of patients
Dry nose [4]: 136 (26.0) number (%) of patients
Epistaxis [4]: 121 (23.1) number (%) of patients
Fingertip peeling/Desquamation [4]: 63 (12.0) number (%) of patients
Headache [4]: 44 (8.4) number (%) of patients
Irritation of eyes [4]: 85 (16.3) number (%) of patients
Pruritus [4]: 127 (24.3) number (%) of patients
Red Scaly face/Desquamation [4]: 54 (10.3) number (%) of patients
Skin fragility/Skin disorder [4]: 164 (31.4) number (%) of patients
total dose needed to reach the same peak blood concentration in the fasted state as following a high fat meal ([1]; fasted vs high fat meal): more than doubled
impact of food on bioavailability [1]: bioavailability is increased in the presence of food
effect on blood concentrations of ethinyl estradiol and norethindrone ([3]; coadministered contraceptive tablets): decreases blood concentrations

CC1(C)CCSc2ccc(C#Cc3ccc(C(=O)O)cn3)cc21 [tazarotenic acid]
receptor specificity and selectivity (RARs; RARs, RAR-β and RAR-γ): specificity for the RARs and selectivity for RAR-β and RAR-γ
90% confidence intervals (CI) of AUC ratios (test/reference) [5]: completely within the 80-125% boundary
Effect of high-fat meal on bioavailability or pharmacokinetics of tazarotenic acid ([5]; single and multiple dose): does not substantially affect
AUC(0-t) ([6]; read-out: AUC0-24 for tazarotenic acid): 379 ± 78 ng·h/mL
Cmax ([6]; read-out: Cmax for tazarotenic acid): 111 ± 37 ng/mL
RAR-α activity (RAR-α): minimal RAR-α activity
activation of the RXRs (RXRs): does not activate the RXRs

Source: patent US20050026950A1, “Methods of therapeutic treatment using retinoids to achieve consistent bioavailability” (Allergan, Inc., priority 2003, published 2005)
